According to ChEMBL document CHEMBL1130762, “Structure-activity relationships of a series of 1-substituted-4-methylbenzimidazole neuropeptide Y-1 receptor antagonists” (Bioorg Med Chem Lett, 1998):
“And” between values parts separate entries of the source, which are not always exact repeats. Equal values may be shown once.

These compounds were tested on SK-N-MC (assay: Tested to reverse NPY induced inhibition of forskolin-stimulated cAMP in SK-N-MC cells is evaluated.).
Format: functional, cell-based, Homo sapiens
`Cc1cccc2c1nc(COc1ccc(Cl)cc1)n2CCCC1CCN(CCCN2CCCCC2)CC1` showed a Ki of 46 nM.

Each compound was assayed on SK-N-MC (assay: Inhibition of NPY induced intracellular Ca++ mobilization in SK-N-MC cells is evaluated.).
Format: functional, cell-based, Homo sapiens
In the case of `Cc1cccc2c1nc(COc1ccc(Cl)cc1)n2CCCC1CCN(CCCN2CCCCC2)CC1`, the Ki is reported as 26 nM.

Each compound was assayed against T1, Neuropeptide Y receptor type 1 (Homo sapiens, UniProt P25929) (assay: Binding affinity at cloned Neuropeptide Y receptor type 1 expressed in AV-12 cells is evaluated.).
T1 sequence (P25929 whole entry): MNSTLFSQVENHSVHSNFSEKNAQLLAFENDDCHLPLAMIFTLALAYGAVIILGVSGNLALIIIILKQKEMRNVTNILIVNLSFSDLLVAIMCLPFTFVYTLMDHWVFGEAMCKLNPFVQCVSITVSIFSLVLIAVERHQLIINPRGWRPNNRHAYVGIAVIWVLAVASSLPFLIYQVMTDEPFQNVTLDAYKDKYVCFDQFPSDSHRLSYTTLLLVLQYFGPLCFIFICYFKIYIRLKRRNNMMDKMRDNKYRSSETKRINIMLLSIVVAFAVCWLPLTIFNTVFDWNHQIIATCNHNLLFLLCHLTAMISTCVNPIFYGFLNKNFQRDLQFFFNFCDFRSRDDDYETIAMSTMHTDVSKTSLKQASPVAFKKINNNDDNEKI
Format: cell-based, AV12
In the case of `Clc1ccc(OCc2nc3c(OCCCN4CCCCC4)cccc3n2CCCC2CCCNC2)cc1` (stereo unspecified), the Ki is reported as 2 nM.

These compounds were tested against T1, Neuropeptide Y receptor type 1 (assay: Binding affinity at cloned Neuropeptide Y-1 receptor expressed in AV-12 cells is evaluated.).
Format: cell-based, AV12
`Cc1cccc2c1nc(COc1ccc(Cl)cc1)n2CCCC1CCN(CCCC(N)=O)CC1` showed a Ki of 88 nM. In the case of `Cc1cccc2c1nc(COc1ccc(Cl)cc1)n2CCCC1CCN(CCCC(=O)N2CCCCC2)CC1`, the Ki is reported as 21 nM. Work on `Cc1cccc2c1nc(COc1ccc(Cl)cc1)n2CCCC1CCN(CC(=O)N2CCCCC2)CC1` yielded a Ki of 136 nM. `CCOC(=O)CN1CCC(CCCn2c(COc3ccc(Cl)cc3)nc3c(C)cccc32)CC1` gave a Ki of 427 nM. `Cc1cccc2c1nc(COc1ccc(Cl)cc1)n2CCCC1CCN(CCCN2CCCCC2)CC1` gave a Ki of 4.5 nM. `CCCN1CCC(CCCn2c(COc3ccc(Cl)cc3)nc3c(C)cccc32)CC1` showed a Ki of 29 nM. In the case of `Cc1cccc2c1nc(COc1ccc(Cl)cc1)n2CCCC1CCN(CCCC(=O)O)CC1`, the Ki is reported as 1630 nM. `Cc1cccc2c1nc(COc1ccc(Cl)cc1)n2CCCC1CCN(CCN2CCCCC2)CC1` showed a Ki of 37 nM. Work on `Cc1cccc2c1nc(COc1ccc(Cl)cc1)n2CCCC1CCNCC1` yielded a Ki of 335 nM. In the case of `Cc1cccc2c1nc(COc1ccc(Cl)cc1)n2CCCC1CCN(CCC(C)C)CC1`, the Ki is reported as 11 nM. Work on `Cc1cccc2c1nc(COc1ccc(Cl)cc1)n2CCCC1CCN(CC(=O)O)CC1` yielded a Ki of 2190 nM. `Cc1cccc2c1nc(COc1ccc(Cl)cc1)n2CCCC1CCN(Cc2ccccc2)CC1` showed a Ki of 109 nM. Compound `Cc1cccc2c1nc(COc1ccc(Cl)cc1)n2CCCC1CCN(CCCc2ccccc2)CC1` has a Ki of 57 nM. For `Cc1cccc2c1nc(COc1ccc(Cl)cc1)n2CCCC1CCN(C(=O)CCN2CCCCC2)CC1`, the Ki was 260 nM. `Cc1cccc2c1nc(COc1ccc(Cl)cc1)n2CCCC1CCN(CCc2ccccc2)CC1` gave a Ki of 29 nM. In the case of `CCOC(=O)CCCN1CCC(CCCn2c(COc3ccc(Cl)cc3)nc3c(C)cccc32)CC1`, the Ki is reported as 29 nM. With `Cc1cccc2c1nc(COc1ccc(Cl)cc1)n2CCCC1CCN(CCCCN2CCCCC2)CC1` the Ki was 52 nM and 5.7 nM. Compound `Cc1cccc2c1nc(COc1ccc(Cl)cc1)n2CCCC1CCN(C)CC1` has a Ki of 52 nM.
